Assay results: PMC4385830, “Group I Paks as therapeutic targets in NF2-deficient meningioma” (Oncotarget, 2015)

Key:
[1] = tested on: Ben-Men cells; assay: Immunoblot of signaling pathways; format: cell-based
Procedure: (§1) Protein concentration was determined, and equal amount of total proteins were separated by SDS-PAGE. […] GAPDH and β-actin were used as loading control.

[2] = tested on: KT21 or Ben-Men cells; assay: Immunoblot of signaling pathways; format: cell-based
Procedure: as §1

[3] = tested on: KT21-MG1-Luc5D intracranial xenografts; assay: Orthotopic meningioma model, bioluminescence imaging; details: SCID mice; oral gavage 90 mg/kg/day; 2 weeks; BLI
From the text: Eight-week-old SCID mice were anesthetized with ketamine and their heads were stabilized in a small animal stereotaxic instrument. A midline sagittal incision was made on the cranial skin. A burr hole was drilled in the skull with coordinated 1.5 mm anterior and 1.5 mm lateral to the right from the bregma and a 5-μl Hamilton syringe loaded with cells was slowly inserted through the burr hole and ~0.5 mm downward to the skull base. The incision was closed using surgical absorbable gut suture.
Mice transplanted with meningioma cells were imaged using Xenogen IVIS Spectrum (Caliper, MA). Mice were injected intraperitoneally with Rediject D-Luciferin Ultra at 150 mg/kg under anesthetized with isofluorane. Luciferase activity was measured and all bioluminescence imaging was conducted when perk signal was reached. Once tumors were established (~3 weeks post-transplantation), mice were divided into groups for shRNA studies or drug treatments.
For drugs treatment, mice were dosed with Pak inhibitors daily for 14–21 days and tumor growth was monitored every week by BLI. Mean luminescence for each treatment groups (n = 5) was calculated as described previously.

[4] = tested on: Malignant MN525; assay: Cell viability, MTT assay; format: cell-based; details: NF2+/+, 72 hrs
Procedure: (§2) Cells were plated at 3 × 10^3 cells per well in 96-well plates overnight and treated with various concentrations of Pak inhibitors for 72 hours. Cell viability was measured by MTT assay and the half maximal inhibitory concentration (IC50) was calculated.

[5] = tested on: Arachnoid cell AC07; assay: Cell viability, MTT assay; format: cell-based; details: NF2+/+, 72 hrs
Procedure: as §2

[6] = tested on: Benign MN328; assay: Cell viability, MTT assay; format: cell-based; details: NF2+/+, 72 hrs
Procedure: as §2

[7] = tested on: Benign Ben-Men-1; assay: Cell viability, MTT assay; format: cell-based; details: for IC50: NF2−/−, 72 hrs, MTT; for effect on growth of cells: Ben-Men, 3 days, GSK690693 effect only at high doses
Procedure: as §2

[8] = tested on: Malignant KT21-MG1; assay: Cell viability, MTT assay; format: cell-based; details: for IC50: NF2−/−, 72 hrs, MTT; for effect on growth of cells: KT21, 3 days, GSK690693 effect only at high doses
Procedure: as §2

[9] = tested on: KT21 cells; assay: Apoptosis, Annexin V positive cells by flow cytometry; format: cell-based; details: 3 days, vs DMSO
Procedure: For detection of apoptosis, subconfluent cells were plated in 60-mm plate and treated with inhibitors for 3 days. Cells were collected, washed and resuspended in 1x binding buffer with Annexin V-EGFP and propidium iodide (BioVision, CA) and incubated at room temperature for 5 min in dark. Apoptosis was measured using FACS with collecting 10,000 events per sample.

In the case of CCn1c(=O)c(-c2ccc(-c3cncs3)cc2Cl)cc2cnc(Nc3ccc(N4CCN(C)CC4)cc3)nc21 [Frax597], the “basal level (expression) of β-catenin” value [1] is reported as “did not impact”, the “phosphorylation of β-catenin” value [1] is reported as “diminished” and the “phosphorylation of Pak and Mek1 (at Ser298)” value ([2]; inhibitors at IC50 concentration) is reported as “dramatically inhibited”. The “impaired KT21 tumor growth compared to vehicle cohort” value [3] was 50%, the IC50 [4] was 1.59 µM and the IC50 [5] was 1.18 µM. It also gave an IC50 [6] of 2.81 µM, an IC50 [7] of 0.393 µM and an IC50 [8] of 2.93 µM. The “number of apoptotic cells” value [9] was “substantial increase”.
For CCn1c(-c2nonc2N)nc2c(C#CC(C)(C)O)ncc(OC[C@H]3CCCNC3)c21 [GSK690693], the IC50 [4] was over 20 µM, the IC50 [5] was over 20 µM and the IC50 [6] was over 20 µM. The “effect on growth of cells” value [7] was “impeded the growth”, the IC50 [7] was 3.27 µM and the “effect on growth of cells” value [8] was “impeded the growth”. The IC50 [8] was 4.24 µM.
In the case of Oc1ccc2ccccc2c1SSc1c(O)ccc2ccccc12 [IPA3, reference compound], the “basal level (expression) of β-catenin” value [1] is reported as “induction” and the Pak activity ([2]; immunoblot) is reported as “paradoxical stimulation”.
With O=C(NOC[C@H](O)CO)c1ccc(F)c(F)c1Nc1ccc(I)cc1F [PD325901] the IC50 [4] was over 20 µM, the IC50 [5] was over 20 µM and the IC50 [6] was over 20 µM. For the same molecule, the “effect on growth of cells” value [7] was “no effect”, the IC50 [7] was over 20 µM and the “effect on growth of cells” value [8] was “no effect”. For the same molecule, the IC50 [8] was over 7 µM.
